Patent publication US20230114728A1 (Venatorx Pharmaceuticals, Inc., priority 2019, published 2023)
Values after ≈ are worked out from the molar mass of the structure shown.

What was measured:
Assay type in all cases: cell-based
N. gonorrhoeae FA1090 = assay: Liquid broth MIC in Fastidious broth; details: Neisseria gonorrhoeae; N. gonorrhoeae strain FA1090; Fastidious broth; read-out: Minimum Inhibitory Concentration, N. gonorrhoeae FA1090
Procedure, shortened: (§1)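 Colonies were swabbed from chocolate agar after 24 h growth and standardised by optical density at 600 nm. Compounds were serially diluted twofold in Fastidious broth, and bacteria added to give 5×10^5 CFU/mL. After about 24 h at 36 °C in 5% CO2, the lowest concentration allowing under 10% growth was taken as MIC.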

N. gonorrhoeae WHO L = assay: Liquid broth MIC in Fastidious broth; details: Neisseria gonorrhoeae; N. gonorrhoeae strain WHO L; Fastidious broth; read-out: Minimum Inhibitory Concentration, N. gonorrhoeae WHO L
Procedure, shortened: as §1

N. gonorrhoeae WHO K = assay: Liquid broth MIC in Fastidious broth; details: Neisseria gonorrhoeae, read-out: Minimum Inhibitory Concentration, N. gonorrhoeae WHO K
Procedure, shortened: (§2)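 Broth microdilution against gonococcal strains expressing mosaic PBP2, starting inoculum 5×10^5 CFU/mL in Fastidious broth. Incubation runs ~24 h at 36 °C under 5% CO2, with MIC scored visually at <10% of full growth.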

N. gonorrhoeae WHO Q = assay: Liquid broth MIC in Fastidious broth; details: Neisseria gonorrhoeae, read-out: Minimum Inhibitory Concentration, N. gonorrhoeae WHO Q
Procedure, shortened: as §2

[1] = system: N. gonorrhoeae ATCC 49226; assay: Liquid broth MIC in Fastidious broth; details: Neisseria gonorrhoeae, ATCC49226; N. gonorrhoeae strain ATCC 49226; Fastidious broth; read-out: Minimum Inhibitory Concentration, N. gonorrhoeae ATCC 49226
Procedure, shortened: as §1

N. gonorrhoeae H041 = assay: Liquid broth MIC in Fastidious broth; details: Neisseria gonorrhoeae, H041, read-out: Minimum Inhibitory Concentration, N. gonorrhoeae H041
Procedure, shortened: as §2

N. gonorrhoeae WHO G = assay: Liquid broth MIC in Fastidious broth; details: Neisseria gonorrhoeae; N. gonorrhoeae strain WHO G; Fastidious broth; read-out: Minimum Inhibitory Concentration, N. gonorrhoeae WHO G
Procedure, shortened: as §1

N. gonorrhoeae WHO Z = assay: Liquid broth MIC in Fastidious broth; details: Neisseria gonorrhoeae, read-out: Minimum Inhibitory Concentration, N. gonorrhoeae WHO Z
Procedure, shortened: as §2

E. coli ATCC 25922 = assay: Broth microdilution MIC in CAMHB; details: Escherichia coli, ATCC25922; E. coli ATCC 25922; MHB; read-out: Minimum Inhibitory Concentration, E. coli 25922
Procedure, shortened: (§3)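 Hyper-permeable or efflux-deficient strains serve to probe outer-membrane penetration. Growth inhibition is scored visually after 16-20 h at 37° C in CAMHB, starting from 2-8×10^5 CFU/mL.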

E. coli D22 = assay: Broth microdilution MIC in CAMHB; details: Escherichia coli; E. coli D22 (hyper-permeable); MHB; read-out: Minimum Inhibitory Concentration, E. coli D22
Procedure, shortened: as §3

P. aeruginosa ATCC 35151 = assay: Broth microdilution MIC in CAMHB; details: Pseudomonas aeruginosa, ATCC35151; MHB; hyper-permeable strain; read-out: Minimum Inhibitory Concentration, P. aeruginosa ATCC 35151
Procedure, shortened: as §3

[2] = system: K. pneumoniae SI-117 producing VIM-1; assay: Broth microdilution MIC in CAMHB; details: Klebsiella pneumoniae, read-out: Minimum Inhibitory Concentration, K. pneumoniae SI-117
Procedure, shortened: as §3

E. coli AG100A = assay: Broth microdilution MIC in CAMHB; details: Escherichia coli, read-out: Minimum Inhibitory Concentration, E. coli AG100A
Procedure, shortened: as §3

Row | Structure (SMILES) | MIC (N. gonorrhoeae FA1090) | MIC (N. gonorrhoeae WHO L) | MIC (N. gonorrhoeae WHO K) | MIC (N. gonorrhoeae WHO Q) | MIC [1] | MIC (N. gonorrhoeae H041) | MIC (N. gonorrhoeae WHO G) | MIC (N. gonorrhoeae WHO Z) | MIC (E. coli ATCC 25922) | MIC (E. coli D22) | MIC (P. aeruginosa ATCC 35151) | MIC [2] | MIC (E. coli AG100A)
1 | CCN1CCN(C(=O)N[C@H](C(=O)N[C@H]2Cc3cccc(C(=O)O)c3OB2O)c2ccc(C(=O)O)cc2Cl)C(=O)C1=O (single isomer, unassigned) [Example 152] | 1 to 2 µg/mL (≈ 1.7 to 3.41 µM) | > 64 µg/mL | 16 to 32 µg/mL (≈ 27.3 to 54.5 µM) | 16 to 32 µg/mL (≈ 27.3 to 54.5 µM) | 16 to 32 µg/mL (≈ 27.3 to 54.5 µM) | 16 to 32 µg/mL (≈ 27.3 to 54.5 µM) | 4 to 8 µg/mL (≈ 6.82 to 13.6 µM) | 4 to 8 µg/mL (≈ 6.82 to 13.6 µM) | > 128 µg/mL | 8 to 16 µg/mL (≈ 13.6 to 27.3 µM) | 0.5 to 1 µg/mL (≈ 0.852 to 1.7 µM) | > 128 µg/mL | 32 to 64 µg/mL (≈ 54.5 to 109 µM)
2 | NS(=O)(=O)Nc1cccc(C(NC(=O)N2CCN(CCF)C(=O)C2=O)C(=O)N[C@H]2Cc3cccc(C(=O)O)c3OB2O)c1 (stereo partly drawn) [Example 116, (3R)-3-(2-(4-(2-fluoroethyl)-2,3-dioxopiperazine-1-carboxamido)-2-(3-(sulfamoylamino)phenyl)acetamido)-2-hydroxy-3,4-dihydro-2H-benzo[e][1,2]oxaborinine-8-carboxylic acid] | 0.25 to 0.5 µg/mL (≈ 0.403 to 0.806 µM) | > 64 µg/mL | 16 to 32 µg/mL (≈ 25.8 to 51.6 µM) | 16 to 32 µg/mL (≈ 25.8 to 51.6 µM) | 16 to 32 µg/mL (≈ 25.8 to 51.6 µM) | > 64 µg/mL | 4 to 8 µg/mL (≈ 6.45 to 12.9 µM) | 16 to 32 µg/mL (≈ 25.8 to 51.6 µM) | 8 to 16 µg/mL (≈ 12.9 to 25.8 µM) | 0.5 to 1 µg/mL (≈ 0.806 to 1.61 µM) | 0.5 to 1 µg/mL (≈ 0.806 to 1.61 µM) | 32 to 64 µg/mL (≈ 51.6 to 103 µM) | 2 to 4 µg/mL (≈ 3.22 to 6.45 µM)
3 | CCN1CCN(C(=O)NC(C(=O)N[C@H]2Cc3cccc(C(=O)O)c3OB2O)c2c(F)cc(N)cc2F)C(=O)C1=O (stereo partly drawn) [Example 181, (3R)-3-(2-(4-amino-2,6-difluorophenyl)-2-(4-ethyl-2,3-dioxopiperazine-1-carboxamido)acetamido)-2-hydroxy-3,4-dihydro-2H-benzo[e][1,2]oxaborinine-8-carboxylic acid] | 0.25 to 0.5 µg/mL (≈ 0.447 to 0.894 µM) | 16 to 32 µg/mL (≈ 28.6 to 57.2 µM) | 16 to 32 µg/mL (≈ 28.6 to 57.2 µM) | 16 to 32 µg/mL (≈ 28.6 to 57.2 µM) | 4 to 8 µg/mL (≈ 7.15 to 14.3 µM) | > 64 µg/mL | 1 to 2 µg/mL (≈ 1.79 to 3.58 µM) | 16 to 32 µg/mL (≈ 28.6 to 57.2 µM) | 32 to 64 µg/mL (≈ 57.2 to 114 µM) | 2 to 4 µg/mL (≈ 3.58 to 7.15 µM) | 0.5 to 1 µg/mL (≈ 0.894 to 1.79 µM) | 32 to 64 µg/mL (≈ 57.2 to 114 µM) | 2 to 4 µg/mL (≈ 3.58 to 7.15 µM)
4 | O=C(O)c1c(F)ccc2c1OB(O)[C@@H](NC(=O)C(NC(=O)N1CCN(CCF)C(=O)C1=O)c1c(F)cc(O)cc1F)C2 (stereo partly drawn) [Example 129, (3R)-3-(2-(2,6-difluoro-4-hydroxyphenyl)-2-(4-(2-fluoroethyl)-2,3-dioxopiperazine-1-carboxamido)acetamido)-7-fluoro-2-hydroxy-3,4-dihydro-2H-benzo[e][1,2]oxaborinine-8-carboxylic acid] | 1 to 2 µg/mL (≈ 1.68 to 3.35 µM) | > 64 µg/mL | 16 to 32 µg/mL (≈ 26.8 to 53.7 µM) | 16 to 32 µg/mL (≈ 26.8 to 53.7 µM) | 16 to 32 µg/mL (≈ 26.8 to 53.7 µM) | 16 to 32 µg/mL (≈ 26.8 to 53.7 µM) | 4 to 8 µg/mL (≈ 6.71 to 13.4 µM) | 4 to 8 µg/mL (≈ 6.71 to 13.4 µM) | 32 to 64 µg/mL (≈ 53.7 to 107 µM) | 2 to 4 µg/mL (≈ 3.35 to 6.71 µM) | 0.5 to 1 µg/mL (≈ 0.839 to 1.68 µM) | 32 to 64 µg/mL (≈ 53.7 to 107 µM) | 8 to 16 µg/mL (≈ 13.4 to 26.8 µM)
5 | CCN1CCN(C(=O)N[C@@H](C(=O)N[C@H]2Cc3cccc(C(=O)O)c3OB2O)c2ccc(C(=O)O)cc2Cl)C(=O)C1=O (single isomer, unassigned) [Example 151] | 0.25 to 0.5 µg/mL (≈ 0.426 to 0.852 µM) | 16 to 32 µg/mL (≈ 27.3 to 54.5 µM) | 4 to 8 µg/mL (≈ 6.82 to 13.6 µM) | 4 to 8 µg/mL (≈ 6.82 to 13.6 µM) | 4 to 8 µg/mL (≈ 6.82 to 13.6 µM) | 4 to 8 µg/mL (≈ 6.82 to 13.6 µM) | 1 to 2 µg/mL (≈ 1.7 to 3.41 µM) | 1 to 2 µg/mL (≈ 1.7 to 3.41 µM) | > 128 µg/mL | 2 to 4 µg/mL (≈ 3.41 to 6.82 µM) | 0.5 to 1 µg/mL (≈ 0.852 to 1.7 µM) | > 128 µg/mL | 8 to 16 µg/mL (≈ 13.6 to 27.3 µM)
6 | CCN1CCN(C(=O)NC(C(=O)N[C@H]2Cc3cccc(C(=O)O)c3OB2O)c2ccc(C(=O)O)cc2F)C(=O)C1=O (stereo partly drawn) [Example 145, (3R)-3-(2-(4-carboxy-2-fluorophenyl)-2-(4-ethyl-2,3-dioxopiperazine-1-carboxamido)acetamido)-2-hydroxy-3,4-dihydro-2H-benzo[e][1,2]oxaborinine-8-carboxylic acid] | < 0.125 µg/mL | 16 to 32 µg/mL (≈ 28.1 to 56.1 µM) | 4 to 8 µg/mL (≈ 7.01 to 14 µM) | 4 to 8 µg/mL (≈ 7.01 to 14 µM) | 1 to 2 µg/mL (≈ 1.75 to 3.51 µM) | 4 to 8 µg/mL (≈ 7.01 to 14 µM) | 1 to 2 µg/mL (≈ 1.75 to 3.51 µM) | 4 to 8 µg/mL (≈ 7.01 to 14 µM) | 32 to 64 µg/mL (≈ 56.1 to 112 µM) | 2 to 4 µg/mL (≈ 3.51 to 7.01 µM) | < 0.25 µg/mL | > 128 µg/mL | 8 to 16 µg/mL (≈ 14 to 28.1 µM)
